From paper PMC10818312, “Ocular and Plasma Pharmacokinetics of Enavogliflozin Ophthalmic Solution in Preclinical Species” (Pharmaceuticals, 2024)

Key:
[1] = Ocular distribution and blood exposure of radioactivity by autoradiography after single ocular [14C] enavogliflozin (terminal sampling); conditions: single ocular 600 μg/eye, rabbits
Method: (§3) We used 9-month-old male rabbits (Envigo, Denver, PA, USA) weighing 3.1–3.7 kg in the PK studies involving a single topical ocular administration of [^14C] enavogliflozin.
(§4) The appropriate quantity of radiolabeled and non-radiolabeled test formulation (if required) was combined with the vehicle to meet the dose level (~77 μCi/eye). […] A single volumetric dose of 30 μL was administered to each eye (600 μg/eye, 1200 μg/head).
(§5) Two animals were euthanized by Euthasol® administration into the marginal ear vein at each predetermined time point (0.5, 1, 2, 4, 8, 24, and 48 h) post-instillation. Subsequently, their heads were frozen in a hexane/dry-ice bath and embedded in a 5% carboxymethylcellulose matrix. The embedded heads were sectioned at 30 μm thickness with less than 20% variation.
(§6) The primary PK parameters for concentrations of enavogliflozin were explored using a noncompartmental method of Phoenix WinNonlin 8.3 (Certara, L.P., Princeton, NJ, USA). The Cmax and Tmax were directly accepted from observed data. The AUC0–t was calculated using the linear trapezoidal method based on the mean radioactivity concentration of both eyes for ocular PKs in rabbits and the linear-up/log-down trapezoidal method for plasma PKs in rats, beagle dogs, and rabbits.

[2] = Plasma PK after single ocular administration in rats; type: in vivo; conditions: male, Brown Norway, topical or ocular, 25 ug, rat plasma, single ocular 25 μg
Method: (§1) We used 7-week-old male Brown Norway rats (Central Lab. Animal Inc., Seoul, Republic of Korea) weighing 140–180 g. The rats were acclimated for a minimum of 7 days. For the evaluation of plasma PKs after ocular administration, a single dose of 5 μL of DWRX2008 0.5% (25 μg of enavogliflozin) was topically applied on the left eye. One-year-old male Ridglan beagle dogs (JOHN Bio Co., Nantong, China) weightng 8–10 kg were chosen. The beagle dogs experienced a withdrawal period of over one month. For the evaluation of plasma PKs after ocular administration, a single dose of 20 μL of DWRX2008 0.5% (100 μg of enavogliflozin) was ocularly administered on the left eyes. In rats and beagle dogs, DWRX2008 was administered to the left eye for evaluation of safety and systemic absorption. Male New Zealand White rabbits (Samtako Biokorea, Osan, Republic of Korea) weighing 2.0–2.5 kg were used in PK studies after eye drop instillations. The rabbits were acclimated for 7 days. […]
(§2) A total of three rats were sampled 10 times at 0 (pre-dose), 0.08, 0.25, 0.5, 1, 2, 4, 8, 12 and 24 h post-dose. […] After centrifugation at 14,000 rpm for 5 min, 3 μL of sample was analyzed by LC-MS [24]. […] Finally, 3 μL of sample was analyzed by LC-MS [24]. […] Finally, 3 μL of sample was analyzed by LC-MS [24]. […]

[3] = Plasma PK after single ocular administration in rabbits; type: in vivo; conditions: male, New Zealand White, topical or ocular, 400 ug, rabbit plasma, single ocular 400 μg (both eye)
Method: as §1, §2

[4] = Plasma and retinal concentration after single oral administration in rabbits; type: in vivo, male New Zealand White rabbits
[5] = Plasma PK after single ocular administration in beagle dogs; type: in vivo; conditions: male, Ridglan beagle, topical or ocular, 100 ug, beagle dog plasma, single ocular 100 μg
Method: as §1, §2

[6] = Retina/plasma drug concentration ratio in rats; type: in vivo; conditions: mean (range)
[7] = Melanin binding capability; type: in vitro ADME
[8] = male, New Zealand White, rabbit, in vivo
Method: as §3, §4, §5, §6

[9] = no reference given; cited from earlier work
[10] = system: hSGLT2; conditions: no reference given; read-out: IC50 against hSGLT2; cited from earlier work
[11] = system: hERG; set-up: method as in earlier work; conditions: ref Daewoong Therapeutics, DWRX2008-IB-01 Investigator’s brochure, data on file; cited from earlier work
[12] = left eye, median [min, max], n = 3

Tmax [2, 12] [h] | half-life ([2]; mean ± SD (% CV)) [h] | half-life ([3]; mean ± SD (% CV)) [h] | Tmax ([3]; median [min, max], n = 6) [h] | Tmax ([4]; male, New Zealand White, 400 ug, rabbit plasma, single oral 400 μg, median [min, max], n = 6) [h] | retinal enavogliflozin concentration ([4]; rabbits, oral administration, same dose (400 μg)) | Tmax [5, 12] [h] | half-life ([5]; mean ± SD (% CV)) [h] | mean retina/plasma (R/P) drug concentration ratio ([6]; 1 h after administration) | mean retina/plasma (R/P) drug concentration ratio ([6]; 3 h after administration) | mean retina/plasma (R/P) drug concentration ratio ([6]; 6 h after administration) | melanin binding capability [7] | time until which retinal concentration remained above the IC50 of SGLT2 [8] [h] | Molecule | AUC0–t in whole blood as % of corresponding value in the plasma ([1]; radioactivity) [%] | Cmax in whole blood as % of corresponding value in the plasma ([1]; radioactivity) [%] | Radioactivity in the optic nerve [1] | partition coefficient [Log P] [9] | IC50 [10] [µM] | IC50 [11] [µM]
 |  |  |  |  |  |  |  |  |  |  |  |  | [^14C] enavogliflozin | 64.0 | 73.4 | barely detectable |  |  | 
4 | 5.4 | 3.6 | 0.5 | 0.8 | below the lower limit of quantification | 1 | 10.6 | 3.3 (range: 0.6–6.6) | 1.3 (range: 0.2–2.2) | 2.6 (range: 1.4–3.3) | approximately 33% | 24 | OC[C@H]1O[C@@H](c2cc(Cc3ccc(C4CC4)cc3)c(Cl)c3c2CCO3)[C@H](O)[C@@H](O)[C@@H]1O [enavogliflozin] |  |  |  | 2.13 | 0.00043 | 44.9
